Data on one molecule can be found in patent US10596216B2, “Use of a Withania extract for the treatment of amyloid-related diseases” (Ethnodyne, priority 2015, dated 2020).

The subject of this data set is rat primary cortical cultures. Put plainly: Neuroprotective effect following exposure to glutamate (Example 12). It is filed as cell-based. Particulars: glutamate 40 μM, 20 min, primary cortical neuron culture. Here is the method:
This study investigated the neuroprotective effect of the composition WEB-2 on rat primary cortical cultures following exposure to glutamate (40 μM, 20 min application), an in vitro AD model.
Pregnant Wistar females rat (JanvierLabs, France) at 15 days of gestation were killed by cervical dislocation. The foetuses were prepared as in example 11.
Once obtained, the cells were seeded at a density of 30,000 per well in 96-well plates precoated with poly-L-lysine (Batch: 3102256, Corning Biocoat) and were cultured at 37° C. in an air (95%)-CO2 (5%) incubator. The medium was changed every 2 days. The cortical neurons were intoxicated with glutamate solution.
On day 13 after culture, glutamate (Batch: 061M0030V, Sigma) was added into cell culture to a final concentration of 40 μM diluted in control medium for 20 min. After 20 min, the cells were washed-out and new fresh medium containing or not WEB-2 was added for 48 h additional time. […]
The immunolabeled cultures were automatically examined with ImageXpress equipped with a LED at ×20 magnification. For each condition (6 culture wells), 30 automatically fields per well (representing ˜80% of the total surface of the well) were analyzed. The total number of neurons and neurite length were automatically analyzed using MetaXpress software.

As for `N[C@@H](CCC(=O)O)C(=O)O` [Glutamate, glutamate], the “neurite network loss induced” value is on record as “neurite network loss” and the neuronal death induced result is recorded as “significant neuronal death”.
